The nature of data set [1]: Protein binding in plasma (unknown origin). Type of data set: ADME, cell-free. The settings on record: read-out: PPB (converted).
In data set [2] the test system is Mus musculus. As to the kind of experiment: Neurotoxicity in C57/BL6 mouse assessed as induction of convulsion at 10 mg/kg, ip. The format is toxicity, organism-based. The following applies: in vivo.
The target in data set [3] is T1, Metabotropic glutamate receptor 5 (Homo sapiens, UniProt P41594).
Description: Displacement of [3H]MPEPgamma in mGlu5 receptor (unknown origin) incubated for 60 mins by liquid scintillation counting method
In data set [4] the target is T1, Metabotropic glutamate receptor 5. The source holds these as a separate data set.
Description: Agonist activity at human mGlu5A receptor expressed in HEK293 cells coexpressing rat glutamate-aspartate transporter assessed as induction of Ca2+ release by calcium 4 dye based FLIPR assay
Data set [5] has the same target. This is another data set of the same source.
Description: Positive allosteric modulation of human mGlu5A receptor expressed in HEK293 cells coexpressing rat glutamate-aspartate transporter assessed as potentiation of L-glutamate-induced Ca2+ signal incubated for 60 mins by calcium 4 dye based FLIPR assay
In data set [6] the test system is Mus musculus. The data set is described as follows: Neurotoxicity in C57/BL6 mouse assessed as induction of convulsion at 10 mg/kg, ip coadministered with (4R,5R)-5-Phenyl-4-(4-(phenylethynyl)pyridin-2-yl)oxazolidin-2-one. The settings on record: in vivo. The format is toxicity, organism-based.
For data set [7], the target named is Metabotropic glutamate receptor 5 (Rattus norvegicus, UniProt P31424). As to the kind of experiment: Agonist activity at mGlu5A receptor in primary rat cortical astrocytes. The format is cell-based.
Metabotropic glutamate receptor 5 (Rattus norvegicus, UniProt P31424), sequence (P31424 whole entry): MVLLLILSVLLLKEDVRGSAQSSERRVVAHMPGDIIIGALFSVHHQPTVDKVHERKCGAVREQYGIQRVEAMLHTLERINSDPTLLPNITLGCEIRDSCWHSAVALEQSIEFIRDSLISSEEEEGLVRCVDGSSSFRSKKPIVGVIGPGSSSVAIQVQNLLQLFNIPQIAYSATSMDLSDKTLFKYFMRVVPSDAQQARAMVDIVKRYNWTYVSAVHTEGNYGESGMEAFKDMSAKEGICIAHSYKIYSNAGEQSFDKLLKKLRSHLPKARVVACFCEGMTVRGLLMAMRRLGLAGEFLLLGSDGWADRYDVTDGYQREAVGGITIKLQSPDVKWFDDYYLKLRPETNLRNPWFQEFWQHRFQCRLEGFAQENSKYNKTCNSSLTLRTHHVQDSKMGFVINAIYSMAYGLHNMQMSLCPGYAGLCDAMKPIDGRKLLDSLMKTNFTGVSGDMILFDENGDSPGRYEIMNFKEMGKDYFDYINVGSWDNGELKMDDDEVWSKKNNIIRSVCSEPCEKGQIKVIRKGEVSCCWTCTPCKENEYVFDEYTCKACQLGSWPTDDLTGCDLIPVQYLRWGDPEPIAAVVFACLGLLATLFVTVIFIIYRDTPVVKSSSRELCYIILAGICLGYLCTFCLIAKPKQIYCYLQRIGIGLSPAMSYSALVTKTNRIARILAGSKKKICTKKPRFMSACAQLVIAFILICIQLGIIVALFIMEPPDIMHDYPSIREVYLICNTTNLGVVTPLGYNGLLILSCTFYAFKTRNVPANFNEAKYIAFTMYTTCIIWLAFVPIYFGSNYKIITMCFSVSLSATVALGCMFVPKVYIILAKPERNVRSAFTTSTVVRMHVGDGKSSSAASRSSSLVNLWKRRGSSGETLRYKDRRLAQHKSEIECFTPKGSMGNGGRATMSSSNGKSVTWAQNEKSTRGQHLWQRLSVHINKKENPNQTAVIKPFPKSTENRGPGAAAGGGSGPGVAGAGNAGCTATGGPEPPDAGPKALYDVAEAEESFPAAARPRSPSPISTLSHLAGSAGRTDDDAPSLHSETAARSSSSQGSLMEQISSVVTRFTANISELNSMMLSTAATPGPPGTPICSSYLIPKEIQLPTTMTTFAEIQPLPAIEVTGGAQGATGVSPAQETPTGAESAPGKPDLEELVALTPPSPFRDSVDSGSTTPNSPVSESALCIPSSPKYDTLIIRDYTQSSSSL
In data set [8] the test system is Mus musculus. As to the kind of experiment: Neurotoxicity in C57/BL6 mouse assessed as induction of convulsion at 30 mg/kg, ip. Type of data set: toxicity, organism-based. The following applies: in vivo.

We go through 3 compounds from ChEMBL document CHEMBL3804767, “Discovery and Preclinical Evaluation of BMS-955829, a Potent Positive Allosteric Modulator of mGluR5” (ACS Med Chem Lett, 2016).

T1 sequence (P41594 whole entry): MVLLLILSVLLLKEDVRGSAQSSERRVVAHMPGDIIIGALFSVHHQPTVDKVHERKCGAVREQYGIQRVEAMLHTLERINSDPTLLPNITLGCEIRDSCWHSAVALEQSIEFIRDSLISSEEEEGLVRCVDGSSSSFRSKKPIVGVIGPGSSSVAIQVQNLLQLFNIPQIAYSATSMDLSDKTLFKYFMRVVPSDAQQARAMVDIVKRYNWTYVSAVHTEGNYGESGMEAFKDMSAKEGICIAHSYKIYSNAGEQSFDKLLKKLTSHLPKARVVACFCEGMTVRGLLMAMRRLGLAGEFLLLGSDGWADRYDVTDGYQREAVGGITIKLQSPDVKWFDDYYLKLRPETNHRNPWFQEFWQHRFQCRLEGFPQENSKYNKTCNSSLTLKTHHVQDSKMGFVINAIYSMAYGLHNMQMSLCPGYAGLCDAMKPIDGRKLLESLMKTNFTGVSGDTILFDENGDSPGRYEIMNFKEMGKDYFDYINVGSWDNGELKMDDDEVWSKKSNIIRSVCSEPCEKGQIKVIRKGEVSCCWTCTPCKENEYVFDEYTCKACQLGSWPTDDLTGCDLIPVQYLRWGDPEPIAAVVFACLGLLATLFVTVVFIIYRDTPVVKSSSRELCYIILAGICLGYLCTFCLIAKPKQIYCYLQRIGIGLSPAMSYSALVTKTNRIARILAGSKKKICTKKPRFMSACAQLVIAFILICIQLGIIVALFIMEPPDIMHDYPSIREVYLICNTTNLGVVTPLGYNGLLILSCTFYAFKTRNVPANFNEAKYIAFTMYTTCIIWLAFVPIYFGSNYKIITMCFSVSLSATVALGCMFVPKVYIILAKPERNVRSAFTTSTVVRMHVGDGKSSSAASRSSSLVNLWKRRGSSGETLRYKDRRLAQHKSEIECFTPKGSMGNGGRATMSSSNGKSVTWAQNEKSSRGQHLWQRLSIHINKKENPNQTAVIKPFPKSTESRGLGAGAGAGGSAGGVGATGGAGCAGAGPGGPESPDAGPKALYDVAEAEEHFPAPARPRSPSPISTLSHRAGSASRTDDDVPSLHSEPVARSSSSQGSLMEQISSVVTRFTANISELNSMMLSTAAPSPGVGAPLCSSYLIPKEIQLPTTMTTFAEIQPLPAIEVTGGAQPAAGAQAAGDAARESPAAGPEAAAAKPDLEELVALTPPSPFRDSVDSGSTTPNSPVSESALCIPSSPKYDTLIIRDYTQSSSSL

Usually Ki stands for the dissociation constant of the complex between target and ligand, obtained from inhibition or displacement. A lower Ki goes with tighter binding. By EC50 is commonly meant the midpoint of the concentration-response curve. High values mean a need for much substance, low ones an effect from little substance. As for `COc1cccc([C@H]2OC(=O)N[C@@H]2c2cccc(C#Cc3ccccc3)c2)c1`, the fraction unbound in data set [1] was 0.003. Moreover, the Activity result in data set [2] is on record as “Non-toxic”. In addition, in data set [3], affinity was put at a Ki of 13 nM. The concentration giving a half-maximal response (EC50) was over 30000 nM in data set [4] and 29 nM in data set [5].
For the compound `O=C1N[C@H](c2cncc(C#Cc3cncc(F)c3)c2)[C@@H](c2ccc(F)cc2)O1`, the fraction unbound in data set [1] is 0.035. In addition, the Activity entry in data set [2] was “Toxic”; in data set [6], “Non-toxic”. In addition, the Ki in data set [3] came to 25 nM. The EC50 in data set [7] came to 310 nM; in data set [5], 6 nM.
For the compound `O=C1N[C@H](c2cc(C#Cc3ccccc3)ccn2)[C@@H](c2ccccc2)O1`, the fraction unbound in data set [1] was 0.006. In data set [8], the Activity entry is “Non-toxic”. In data set [3], the inhibition constant (Ki) amounted to 10 nM. Also, the EC50 in data set [4] and in data set [5] was over 3000 nM throughout.
